From patent US6737383B1, “Herbicidal oxadiazolidines” (priority 1999, dated 2004)

Key:
velvetleaf = assay: Test B pre/postemergence velvetleaf; format: in vivo, Abutilon theophrasti
Summary of the method: (§1)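 Herbicidal effect was estimated by eye on a ten-point control scale after plants spent twelve to sixteen days in a greenhouse following soil or foliar treatment. Foliar sprays targeted plants at one to four leaves; all doses were formulated in a non-phytotoxic solvent with surfactant.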

purple nutsedge = assay: Test B pre/postemergence purple nutsedge; format: in vivo, Cyperus rotundus
Summary of the method: as §1

wheat = assay: Test B pre/postemergence wheat; format: in vivo, Triticum aestivum
Summary of the method: as §1

crabgrass = assay: Test B pre/postemergence crabgrass; format: in vivo, Digitaria sanguinalis
Summary of the method: as §1

wild oat = assay: Test B pre/postemergence wild oat; format: in vivo, Avena fatua
Summary of the method: as §1

corn = assay: Test B pre/postemergence corn; format: in vivo, Zea mays
Summary of the method: as §1

blackgrass = assay: Test B pre/postemergence blackgrass; format: in vivo, Alopecurus myosuroides
Summary of the method: as §1

morningglory = assay: Test B pre/postemergence morningglory; format: in vivo, Ipomoea hederacea
Summary of the method: as §1

cocklebur = assay: Test B pre/postemergence cocklebur; format: in vivo, Xanthium strumarium
Summary of the method: as §1

surinam grass = assay: Test B pre/postemergence surinam grass; format: in vivo, Brachiaria decumbens
Summary of the method: as §1

soybean = assay: Test B pre/postemergence soybean; format: in vivo, Glycine max
Summary of the method: as §1

bedstraw = assay: Test B pre/postemergence bedstraw; format: in vivo, Galium aparine; conditions: Preemergence
Summary of the method: as §1

pigweed = assay: Test B pre/postemergence pigweed; format: in vivo, Amaranthus retroflexus
Summary of the method: as §1

giant foxtail = assay: Test B pre/postemergence giant foxtail; format: in vivo, Setaria faberii
Summary of the method: as §1

rape = assay: Test B pre/postemergence rape; format: in vivo, Brassica napus
Summary of the method: as §1

sugar beet = assay: Test B pre/postemergence sugar beet; format: in vivo, Beta vulgaris
Summary of the method: as §1

[1] = Postemergence, Rate 62 g/ha, scale 0 to 10, 0 is no effect, 10 is complete control
[2] = Postemergence, Rate 125 g/ha, scale of 0 to 10 where 0 is no effect and 10 is complete control
[3] = Preemergence, Rate 62 g/ha, scale of 0 to 10 where 0 is no effect and 10 is complete control
[4] = Preemergence, Rate 125 g/ha, scale of 0 to 10 where 0 is no effect and 10 is complete control
[5] = Preemergence, Rate 250 g/ha, scale 0 to 10 (0 no effect, 10 complete control)
[6] = Preemergence, Rate 500 g/ha, scale of 0 to 10 where 0 is no effect and 10 is complete control
[7] = Rate 500 g/ha, Postemergence, scale 0 to 10, 0 is no effect, 10 is complete control
[8] = Postemergence, Rate 250 g/ha, scale of 0 to 10, 0 is no effect, 10 is complete control
[9] = Rate 125 g/ha, scale of 0 to 10 where 0 is no effect and 10 is complete control
[10] = Preemergence, Rate 250 g/ha, scale 0 (no effect) to 10 (complete control)
[11] = Rate 62 g/ha, Preemergence, scale 0 to 10
[12] = Rate 500 g/ha, Preemergence, scale 0 to 10 (0 no effect, 10 complete control)

What does the source list for `C#CC(C=C(C)C)n1c(=O)on(C(=O)N(c2ccccc2)C(C)C)c1=O` (stereo not shown) [Compound 652]?
Plant response rating, Velvetleaf (velvetleaf; [1]): 0; Velvetleaf plant response rating (velvetleaf; [2]): 0; Velvetleaf plant response rating (velvetleaf; [3]): 0; Velvetleaf plant response rating (velvetleaf; [4]): 0; Plant response rating, Velvetleaf (velvetleaf; [5]): 0; Plant response rating, Velvetleaf (velvetleaf; [6]): 1; Velvetleaf plant response rating (velvetleaf; [7]): 0; Nutsedge plant response rating (purple nutsedge; [2]): 0; Nutsedge plant response rating (purple nutsedge; [3]): 0; Nutsedge plant response rating (purple nutsedge; [4]): 0; Plant response rating, Nutsedge (purple nutsedge; [5]): 0; Plant response rating, Nutsedge (purple nutsedge; [6]): 3; Nutsedge plant response rating (purple nutsedge; [7]): 0; Plant response rating, Wheat (wheat; [1]): 0; Wheat plant response rating (wheat; [2]): 0; Wheat plant response rating (wheat; [3]): 0; Wheat plant response rating (wheat; [4]): 0; Plant response rating, Wheat (wheat; [5]): 0; Plant response rating, Wheat (wheat; [6]): 0; Wheat plant response rating (wheat; [7]): 2; Plant response rating, Crabgrass (crabgrass; [1]): 0; Crabgrass plant response rating (crabgrass; [2]): 0; Crabgrass plant response rating (crabgrass; [8]): 0; Crabgrass plant response rating (crabgrass; [3]): 4; Crabgrass plant response rating (crabgrass; [4]): 8; Plant response rating, Crabgrass (crabgrass; [5]): 8; Plant response rating, Crabgrass (crabgrass; [6]): 9; Crabgrass plant response rating (crabgrass; [7]): 6; Plant response rating, Wild oats (wild oat; [1]): 0; Wild oats plant response rating (wild oat; [2]): 0; Wild oats plant response rating (wild oat; [3]): 0; Wild oats plant response rating (wild oat; [4]): 0; Plant response rating, Wild oats (wild oat; [5]): 0; Plant response rating, Wild oats (wild oat; [6]): 0; Wild oats plant response rating (wild oat; [7]): 0; Plant response rating, Corn (corn; [1]): 0; Corn plant response rating (corn; [2]): 0; Corn plant response rating (corn; [8]): 0; Corn plant response rating (corn; [3]): 0; Corn plant response rating (corn; [4]): 0; Plant response rating, Corn (corn; [5]): 0; Plant response rating, Corn (corn; [6]): 0; Corn plant response rating (corn; [7]): 0; Plant response rating, Blackgrass (blackgrass; [1]): 0; Blackgrass plant response rating (blackgrass; [2]): 0; Blackgrass plant response rating (blackgrass; [8]): 0; Blackgrass plant response rating (blackgrass; [3]): 0; Blackgrass plant response rating (blackgrass; [4]): 0; Plant response rating, Blackgrass (blackgrass; [5]): 0; Plant response rating, Blackgrass (blackgrass; [6]): 2; Blackgrass plant response rating (blackgrass; [7]): 0; Plant response rating, Morningglory (morningglory; [1]): 3; Morningglory plant response rating (morningglory; [2]): 3; Morningglory plant response rating (morningglory; [8]): 5; Morningglory plant response rating (morningglory; [3]): 0; Morningglory plant response rating (morningglory; [4]): 0; Plant response rating, Morningglory (morningglory; [5]): 0; Plant response rating, Morningglory (morningglory; [6]): 0; Morningglory plant response rating (morningglory; [7]): 7; Plant response rating, Cocklebur (cocklebur; [1]): 0; Cocklebur plant response rating (cocklebur; [2]): 0; Cocklebur plant response rating (cocklebur; [8]): 0; Cocklebur plant response rating (cocklebur; [3]): 0; Cocklebur plant response rating (cocklebur; [4]): 0; Plant response rating, Cocklebur (cocklebur; [5]): 0; Plant response rating, Cocklebur (cocklebur; [6]): 3; Cocklebur plant response rating (cocklebur; [7]): 0; Plant response rating, B. signalgrass (surinam grass; [1]): 0; Plant response rating, B. signalgrass (surinam grass; [2]): 0; B. signalgrass plant response rating (surinam grass; [8]): 0; B. signalgrass plant response rating (surinam grass; [3]): 0; B. signalgrass plant response rating (surinam grass; [4]): 0; Plant response rating, B. signalgrass (surinam grass; [5]): 2; Plant response rating, B. signalgrass (surinam grass; [6]): 2; B. signalgrass plant response rating (surinam grass; [7]): 2; Plant response rating, Soybean (soybean; [1]): 0; Soybean plant response rating (soybean; [2]): 0; Soybean plant response rating (soybean; [3]): 0; Soybean plant response rating (soybean; [4]): 0; Plant response rating, Soybean (soybean; [5]): 0; Plant response rating, Soybean (soybean; [6]): 0; Soybean plant response rating (soybean; [7]): 3; Bedstraw plant response rating (bedstraw; Rate 62 g/ha, scale of 0 to 10 where 0 is no effect and 10 is complete control): 0; Bedstraw plant response rating (bedstraw; [9]): 0; Plant response rating, Bedstraw (bedstraw; Rate 250 g/ha, scale 0 to 10 (0 no effect, 10 complete control)): 0; Plant response rating, Bedstraw (bedstraw; Rate 500 g/ha, scale of 0 to 10 where 0 is no effect and 10 is complete control): 0; Plant response rating, Redroot pigweed (pigweed; [1]): 0; Redroot pigweed plant response rating (pigweed; [2]): 0; Redroot pigweed plant response rating (pigweed; [3]): 0; Redroot pigweed plant response rating (pigweed; [4]): 0; Plant response rating, Redroot pigweed (pigweed; [5]): 0; Plant response rating, Redroot pigweed (pigweed; [6]): 0; Redroot pigweed plant response rating (pigweed; [7]): 6; Plant response rating, Giant foxtail (giant foxtail; [1]): 0; Giant foxtail plant response rating (giant foxtail; [2]): 3; Giant foxtail plant response rating (giant foxtail; [8]): 4; Giant foxtail plant response rating (giant foxtail; [3]): 8; Giant foxtail plant response rating (giant foxtail; [4]): 9; Plant response rating, Giant foxtail (giant foxtail; [5]): 9; Plant response rating, Giant foxtail (giant foxtail; [6]): 9; Giant foxtail plant response rating (giant foxtail; [7]): 8; Plant response rating, Rape (rape; [1]): 0; Rape plant response rating (rape; [3]): 0; Rape plant response rating (rape; [4]): 0; Plant response rating, Rape (rape; [5]): 0; Plant response rating, Rape (rape; [6]): 0; Rape plant response rating (rape; [7]): 0; Plant response rating, Sugarbeets (sugar beet; [1]): 0; Sugarbeets plant response rating (sugar beet; [3]): 0; Sugarbeets plant response rating (sugar beet; [4]): 0; Plant response rating, Sugarbeets (sugar beet; [5]): 0; Plant response rating, Sugarbeets (sugar beet; [6]): 0; Sugarbeets plant response rating (sugar beet; [7]): 2

Which results are given for `COCC(OC)n1c(=O)on(C(=O)N(c2ccc(F)cc2F)C(C)C)c1=O` (stereo not shown) [Compound 738]?
Plant response rating, Velvetleaf (velvetleaf; [4]): 1; Velvetleaf plant response rating (velvetleaf; [10]): 6; Velvetleaf plant response rating (velvetleaf; [11]): 0; Velvetleaf plant response rating (velvetleaf; [12]): 8; Nutsedge plant response rating (purple nutsedge; [10]): 4; Nutsedge plant response rating (purple nutsedge; [12]): 8; Plant response rating, Wheat (wheat; [4]): 4; Wheat plant response rating (wheat; [10]): 5; Wheat plant response rating (wheat; [11]): 2; Wheat plant response rating (wheat; [12]): 8; Plant response rating, Crabgrass (crabgrass; [4]): 9; Crabgrass plant response rating (crabgrass; [10]): 9; Crabgrass plant response rating (crabgrass; [11]): 8; Crabgrass plant response rating (crabgrass; [12]): 10; Plant response rating, Wild oats (wild oat; [4]): 9; Wild oats plant response rating (wild oat; [10]): 10; Wild oats plant response rating (wild oat; [11]): 4; Wild oats plant response rating (wild oat; [12]): 10; Plant response rating, Corn (corn; [4]): 4; Corn plant response rating (corn; [10]): 7; Corn plant response rating (corn; [11]): 0; Corn plant response rating (corn; [12]): 9; Plant response rating, Blackgrass (blackgrass; [4]): 10; Blackgrass plant response rating (blackgrass; [10]): 10; Blackgrass plant response rating (blackgrass; [11]): 8; Blackgrass plant response rating (blackgrass; [12]): 10; Plant response rating, Morningglory (morningglory; [4]): 1; Morningglory plant response rating (morningglory; [10]): 2; Morningglory plant response rating (morningglory; [11]): 1; Morningglory plant response rating (morningglory; [12]): 4; Plant response rating, Cocklebur (cocklebur; [4]): 0; Cocklebur plant response rating (cocklebur; [10]): 0; Cocklebur plant response rating (cocklebur; [11]): 0; Cocklebur plant response rating (cocklebur; [12]): 0; B. signalgrass plant response rating (surinam grass; [3]): 6; Plant response rating, B. signalgrass (surinam grass; [4]): 9; B. signalgrass plant response rating (surinam grass; [10]): 10; B. signalgrass plant response rating (surinam grass; [12]): 10; Plant response rating, Soybean (soybean; [4]): 0; Soybean plant response rating (soybean; [10]): 0; Soybean plant response rating (soybean; [11]): 0; Soybean plant response rating (soybean; [12]): 0; Plant response rating, Bedstraw (bedstraw; [9]): 0; Bedstraw plant response rating (bedstraw; Rate 250 g/ha, scale 0 (no effect) to 10 (complete control)): 0; Bedstraw plant response rating (bedstraw; Rate 62 g/ha, scale 0 to 10): 0; Bedstraw plant response rating (bedstraw; Rate 500 g/ha, scale 0 to 10 (0 no effect, 10 complete control)): 0; Plant response rating, Redroot pigweed (pigweed; [4]): 7; Redroot pigweed plant response rating (pigweed; [10]): 8; Redroot pigweed plant response rating (pigweed; [11]): 6; Redroot pigweed plant response rating (pigweed; [12]): 8; Plant response rating, Giant foxtail (giant foxtail; [4]): 9; Giant foxtail plant response rating (giant foxtail; [10]): 10; Giant foxtail plant response rating (giant foxtail; [11]): 8; Giant foxtail plant response rating (giant foxtail; [12]): 10; Plant response rating, Rape (rape; [4]): 5; Rape plant response rating (rape; [10]): 6; Rape plant response rating (rape; [11]): 2; Rape plant response rating (rape; [12]): 8; Plant response rating, Sugarbeets (sugar beet; [4]): 6; Sugarbeets plant response rating (sugar beet; [10]): 6; Sugarbeets plant response rating (sugar beet; [11]): 3; Sugarbeets plant response rating (sugar beet; [12]): 8
